Source: article PMC2580030 (PLoS ONE, 2008)

Biological target: T1, HLA-DR1 (Homo sapiens, UniProt P01903+P01911, A100R/D57E/F55L/F60I/F76Y/I96L/L162R/M171V/P40L/Q125E/R42F/V115G/Y59C)
T1 construct: made in house; host or cells: stably transfected Drosophila S2 insect cell lines (DR1 and DM separately)
Format: binding

With “PVSKMRMATPLLMQA [CLIP, residues 87–101 of the CLIP peptide]” the “largest CLIP/DR1 complex dissociation measured” value was ~55% and the “t 1/2 of CLIP dissociation from DR1” value was “approximately 80 min”.
